These results are taken from US12122761B2, “2-azaspiro[3.4]octane derivatives as M4 agonists” (NOVARTIS AG, priority 2019, dated 2024).

In experiment [1] the target is T1, human cloned CHRM2 receptor (M2_CHO cells) (Homo sapiens, UniProt P08172).
T1 construct: expressed in transfected cells; host or cells: CHO-K1
T1 sequence (P08172 1-466): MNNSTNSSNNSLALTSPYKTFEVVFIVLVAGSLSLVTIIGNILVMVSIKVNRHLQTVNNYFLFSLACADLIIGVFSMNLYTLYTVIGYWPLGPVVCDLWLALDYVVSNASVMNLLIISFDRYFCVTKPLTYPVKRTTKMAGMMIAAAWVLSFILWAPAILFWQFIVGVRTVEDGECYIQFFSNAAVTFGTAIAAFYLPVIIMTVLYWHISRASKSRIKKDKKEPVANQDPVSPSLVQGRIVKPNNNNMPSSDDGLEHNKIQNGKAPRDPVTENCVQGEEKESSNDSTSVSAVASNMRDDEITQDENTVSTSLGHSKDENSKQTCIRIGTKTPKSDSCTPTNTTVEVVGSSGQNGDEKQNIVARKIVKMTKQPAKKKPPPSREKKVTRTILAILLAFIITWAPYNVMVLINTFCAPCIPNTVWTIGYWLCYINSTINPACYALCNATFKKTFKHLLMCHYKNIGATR
The experiment is described as follows: CHRM2 Ca++ Flux Assay (agonist mode, FDSS 7000EX). It counts as cell-based. The settings on record: for Emax: Percent Activity measured to EC100 of Carbachol, read-out: M2 FDSS PA; for EC50: agonist mode, geometric mean if tested more than once, read-out: M2 FDSS EC50. The method in brief: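 Response expressed as percent activity versus the Carbachol EC100, with curves fitted by four-parameter non-linear regression of triplicates. Stable M2_CHO cells were Ca++ dye-loaded and preincubated 60 min at room temperature in assay buffer containing 20 μM ATP; signal imaged for 3 minutes after compound.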

Experiment [2] addresses T2, Cloned human M1 receptor (CHRM1) stably expressed in HEK293 cells (Homo sapiens, UniProt P11229).
T2 construct: expressed in transfected cells; host or cells: HEK293
T2 sequence (P11229 1-460): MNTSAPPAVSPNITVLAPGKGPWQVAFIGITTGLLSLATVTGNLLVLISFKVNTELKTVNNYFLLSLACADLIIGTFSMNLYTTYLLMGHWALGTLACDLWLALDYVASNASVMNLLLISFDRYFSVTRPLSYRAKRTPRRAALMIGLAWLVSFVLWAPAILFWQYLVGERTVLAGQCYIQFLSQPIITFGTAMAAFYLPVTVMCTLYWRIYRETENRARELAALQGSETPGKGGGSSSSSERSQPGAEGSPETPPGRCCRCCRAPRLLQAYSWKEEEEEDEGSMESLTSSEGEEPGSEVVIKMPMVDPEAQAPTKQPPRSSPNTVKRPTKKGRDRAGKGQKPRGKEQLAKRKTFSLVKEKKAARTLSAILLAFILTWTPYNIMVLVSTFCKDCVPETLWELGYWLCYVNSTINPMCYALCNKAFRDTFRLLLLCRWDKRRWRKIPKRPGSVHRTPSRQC
In words: CHRM1 Ca++ Flux Assay (agonist mode, FDSS 7000EX). It counts as cell-based. The settings on record: for Emax: HEK293, Percent Activity, read-out: M1 FDSS PA; for EC50: geometric mean if tested more than once. The method in brief:
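Compounds tested as agonists at 11 concentrations in triplicate, with calcium traces captured over 3 minutes. Cells were HEK293 with stable human CHRM1 expression, plated overnight at 25K/well and loaded with calcium dye. Responses normalized to carbachol EC100 and fitted by four-parameter nonlinear regression.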

As usually defined, the EC50 is the concentration giving half of the maximal effect.

Turning to `CC(C)(O)CCOc1ccccc1C1CCN([C@@H]2CCC3(C2)CN(C(=O)C2COC2)C3)CC1` [Example 7CC, (R)-(6-(4-(2-(3-hydroxy-3-methylbutoxy)phenyl)piperidin-1-yl)-2-azaspiro[3.4]octan-2-yl)(oxetan-3-yl)methanone], the values for the Emax in experiment [1] and in experiment [2] were 0% and 94%, respectively. Moreover, in experiment [2], the response was half-maximal at 6 nM (EC50).
For `N#CCCOc1ccccc1C1CCN([C@@H]2CCC3(C2)CN(C(=O)C2COC2)C3)CC1` [Example 7D, (R)-3-(2-(1-(2-(oxetane-3-carbonyl)-2-azaspiro[3.4]octan-6-yl)piperidin-4-yl)phenoxy)propanenitrile], in experiment [1], the Emax was found to be 31% and the EC50 came to 92 nM. In addition, in experiment [2], the Emax came out at 114% and the EC50 was 3 nM.
On to `O=C(C1COC1)N1CC2(CC[C@@H](N3CCC(c4ccccc4OCCOC(F)(F)F)CC3)C2)C1` [Example 7DD, (R)-oxetan-3-yl(6-(4-(2-(2-(trifluoromethoxy)ethoxy)phenyl)piperidin-1-yl)-2-azaspiro[3.4]octan-2-yl)methanone], for which the Emax in experiment [1] is 0%. Moreover, in experiment [2], the Emax stood at 86% and the EC50 was found to be 116 nM.
As to `O=C(C1COC1)N1CC2(CC[C@@H](N3CCC(c4ccccc4OC[C@@H]4CCOC4)CC3)C2)C1` [Example 7E, oxetan-3-yl((R)-6-(4-(2-(((R)-tetrahydrofuran-3-yl)methoxy)phenyl)piperidin-1-yl)-2-azaspiro[3.4]octan-2-yl)methanone], in experiment [1], the Emax came to 23% and the EC50 is 141 nM. In experiment [2], the Emax was determined as 101% and a half-maximal effect (EC50) was put at 46 nM.
As for `O=C(C1COC1)N1CC2(CC[C@@H](N3CCC(c4ccccc4OCCOC4COC4)CC3)C2)C1` [Example 7EE, (R)-oxetan-3-yl(6-(4-(2-(2-(oxetan-3-yloxy)ethoxy)phenyl)piperidin-1-yl)-2-azaspiro[3.4]octan-2-yl)methanone], in experiment [1], the Emax was determined as 17% and the EC50 is 464 nM. Also, in experiment [2], the Emax came to 98% and the EC50 came out at 73 nM.
Consider `CC(C)COc1ccccc1C1CCN([C@@H]2CCC3(C2)CN(C(=O)C2COC2)C3)CC1` [Example 7F, (R)-(6-(4-(2-isobutoxyphenyl)piperidin-1-yl)-2-azaspiro[3.4]octan-2-yl)(oxetan-3-yl)methanone], for which the Emax in experiment [1] was found to be 0%. In experiment [2], the Emax was 75% and the response was half-maximal at 42 nM (EC50).
Turning to `O=C(C1COC1)N1CC2(CC[C@@H](N3CCC(c4ccccc4OC4CCCC4)CC3)C2)C1` [Example 7G, (R)-(6-(4-(2-(cyclopentyloxy)phenyl)piperidin-1-yl)-2-azaspiro[3.4]octan-2-yl)(oxetan-3-yl)methanone], the Emax in experiment [1] stood at 0%. Further, in experiment [2], the Emax worked out at 65% and the EC50 is 37 nM.
Consider `O=C(C1COC1)N1CC2(CC[C@@H](N3CCC(c4ccccc4OCCC(F)(F)F)CC3)C2)C1` [Example 7GG, (R)-oxetan-3-yl(6-(4-(2-(3,3,3-trifluoropropoxy)phenyl)piperidin-1-yl)-2-azaspiro[3.4]octan-2-yl)methanone], for which the Emax in experiment [1] came out at 9%; in experiment [2], 91%. Moreover, the values for the EC50 in experiment [1] and in experiment [2] were 724 nM and 39 nM, respectively.
On to `O=C(C1COC1)N1CC2(CC[C@@H](N3CCC(c4ccccc4OC4CCC4)CC3)C2)C1` [Example 7H, (R)-(6-(4-(2-cyclobutoxyphenyl)piperidin-1-yl)-2-azaspiro[3.4]octan-2-yl)(oxetan-3-yl)methanone], for which the Emax in experiment [1] was 0%; in experiment [2], 71%. Besides, in experiment [2], the EC50 came out at 9 nM.
On to `COC(C)(C)COc1ccccc1C1CCN([C@@H]2CCC3(C2)CN(C(=O)C2COC2)C3)CC1` [Example 7HH, (R)-(6-(4-(2-(2-methoxy-2-methylpropoxy)phenyl)piperidin-1-yl)-2-azaspiro[3.4]octan-2-yl)(oxetan-3-yl)methanone], for which, in experiment [1], the Emax amounted to 16% and the EC50 came out at 154 nM. Further, in experiment [2], the Emax was determined as 82% and the EC50 was 159 nM.
The corresponding values for `O=C(C1COC1)N1CC2(CC[C@@H](N3CCC(c4ccccc4OCC4CC4)CC3)C2)C1` [Example 7I, (R)-(6-(4-(2-(cyclopropylmethoxy)phenyl)piperidin-1-yl)-2-azaspiro[3.4]octan-2-yl)(oxetan-3-yl)methanone] are 16%, 123 nM, 86% and 15 nM.
The corresponding values for `O=C(C1COC1)N1CC2(CC[C@@H](N3CCC(c4ccccc4OCC4(C(F)(F)F)CC4)CC3)C2)C1` [Example 7II, (R)-oxetan-3-yl(6-(4-(2-((1-(trifluoromethyl)cyclopropyl)methoxy)phenyl)piperidin-1-yl)-2-azaspiro[3.4]octan-2-yl)methanone] are 12%, 6880 nM, 89% and 103 nM.
The corresponding values for `O=C(C1COC1)N1CC2(CC[C@@H](N3CCC(c4ccccc4OCC(F)F)CC3)C2)C1` [Example 7JJ, (R)-(6-(4-(2-(2,2-difluoroethoxy)phenyl)piperidin-1-yl)-2-azaspiro[3.4]octan-2-yl)(oxetan-3-yl)methanone] are 22%, 98 nM, 87% and 12 nM.
`CC(C)Oc1ccccc1C1CCN([C@@H]2CCC3(C2)CN(C(=O)C2COC2)C3)CC1` [Example 7K, (R)-(6-(4-(2-isopropoxyphenyl)piperidin-1-yl)-2-azaspiro[3.4]octan-2-yl)(oxetan-3-yl)methanone]: in experiment [1], the Emax was 23% and the EC50 was 590 nM. Besides, in experiment [2], the Emax is 72% and the EC50 was 24 nM.
As to `O=C(C1COC1)N1CC2(CC[C@@H](N3CCC(c4ccccc4OCCC4COC4)CC3)C2)C1` [Example 7KK, (R)-oxetan-3-yl(6-(4-(2-(2-(oxetan-3-yl)ethoxy)phenyl)piperidin-1-yl)-2-azaspiro[3.4]octan-2-yl)methanone], in experiment [1], the Emax was 21% and the EC50 came to 91 nM. In experiment [2], the Emax worked out at 80% and the EC50 amounted to 11 nM.
For `CC(C)(O)COc1ccccc1C1CCN([C@@H]2CCC3(C2)CN(C(=O)C2COC2)C3)CC1` [Example 7L, (R)-(6-(4-(2-(2-hydroxy-2-methylpropoxy)phenyl)piperidin-1-yl)-2-azaspiro[3.4]octan-2-yl)(oxetan-3-yl)methanone], the Emax in experiment [1] was 0%. For the same molecule, in experiment [2], the Emax stood at 85% and the EC50 was 324 nM.
On to `O=C(C1COC1)N1CC2(CC[C@@H](N3CCC(c4ccccc4OC(F)(F)F)CC3)C2)C1` [Example 12A, (R)-oxetan-3-yl(6-(4-(2-(trifluoromethoxy)phenyl)piperidin-1-yl)-2-azaspiro[3.4]octan-2-yl)methanone], for which, in experiment [1], the Emax was 18% and the EC50 was determined as 110000 nM. In experiment [2], the Emax is 79% and the midpoint of the response, the EC50, lay at 8 nM.
